Article PMC8725448 (Journal of Cannabis Research, 2022)
Entries after “also recorded” stand apart in the source; their conditions may differ.

Columns and labels:
[1] = Plasma concentrations in experimental Scn1a+/- mice after hyperthermia protocol; format: in vivo, mouse
Experimental: The plasma and brain samples were prepared for LC-MS/MS analysis as previously described (Anderson et al. [2019b], [2020]). Briefly, acetonitrile was used to precipitate proteins and extract CBGA methyl ester and olivetolic acid from the biological matrices. The brain samples were additionally filtered through Amicon Ultracel 3K (Merck-Millipore; Burlington, USA) filtration devices. The plasma and brain samples underwent supported-liquid extraction with methyl tert-butyl ether using Biotage Isolute SLE+ columns (Uppsala, SWE) and were then evaporated to dryness with N2. Residues were reconstituted in actetonitrile and 0.1% formic acid in water (1:1, v/v) for analysis using a Shimadzu Nexera ultra-HPLC coupled to a Shimadzu 8030 triple quadrupole mass spectrometer (Shimadzu Corp.; Kyoto, JPN). The mass spectrometer was operated in positive electrospray ionization mode for CBGA methyl ester and negative electrospray ionization mode for olivetolic acid with multiple reaction monitoring and the following mass transition pairs (m/z): 375.20 > 343.25, 375.20 > 219.10 and 375.20 > 251.15 (CBGA-methylester) and 223.25 > 179.25 (olivetolic acid). Quantification of analytes in the plasma and brain samples was achieved by comparing samples to standards prepared with known amounts of compound.
(§1) Hyperthermia-induced seizure experiments were conducted on male and female Scn1a^+/- mice at P14-16 as previously described (Hawkins et al. [2017]). No significant sex differences were observed so males and females were combined across groups. Briefly, for CBGA methyl ester experimental animals a RET-3 rectal temperature probe was inserted 30 min after i.p. injections of vehicle or CBGA methyl ester. Mice acclimated to the probe for 5 min before hyperthermia protocol began. Olivetolic acid experimental animals acclimated to the rectal temperature probe for 5 min then received an i.p. injection of vehicle or olivetolic acid immediately before the hyperthermia protocol was initiated. Mouse core body temperature was elevated 0.5°C every 2 min until the onset of first clonic convulsion with loss of posture or until 42.5°C was reached. The dose range (10, 30, or 100 mg/kg) was chosen to provide a point of direct comparison to CBGA, which is anticonvulsant at 30 and 100 mg/kg. Seizure threshold temperatures were compared in GraphPad Prism 8.2 (LaJolla, USA) using Mantel-Cox logrank test and p < 0.05 was considered statistically significant. Following the hyperthermia-induced seizure protocol, the plasma samples were isolated as described for the pharmacokinetic analysis from a cohort of experimental mice.

CaV3.3 = target: T1, CaV3.3 (Homo sapiens, UniProt Q9P0X4); experiment: Measurement of intracellular calcium, CaV3.3; format: cell-based; conditions: 10 μM; HEK293 cells expressing human CaV3.3
T1 construct: expressed in transfected cells; host or cells: Flp-In T-REx HEK (tetracycline-induced)
T1 sequence (Q9P0X4 whole entry): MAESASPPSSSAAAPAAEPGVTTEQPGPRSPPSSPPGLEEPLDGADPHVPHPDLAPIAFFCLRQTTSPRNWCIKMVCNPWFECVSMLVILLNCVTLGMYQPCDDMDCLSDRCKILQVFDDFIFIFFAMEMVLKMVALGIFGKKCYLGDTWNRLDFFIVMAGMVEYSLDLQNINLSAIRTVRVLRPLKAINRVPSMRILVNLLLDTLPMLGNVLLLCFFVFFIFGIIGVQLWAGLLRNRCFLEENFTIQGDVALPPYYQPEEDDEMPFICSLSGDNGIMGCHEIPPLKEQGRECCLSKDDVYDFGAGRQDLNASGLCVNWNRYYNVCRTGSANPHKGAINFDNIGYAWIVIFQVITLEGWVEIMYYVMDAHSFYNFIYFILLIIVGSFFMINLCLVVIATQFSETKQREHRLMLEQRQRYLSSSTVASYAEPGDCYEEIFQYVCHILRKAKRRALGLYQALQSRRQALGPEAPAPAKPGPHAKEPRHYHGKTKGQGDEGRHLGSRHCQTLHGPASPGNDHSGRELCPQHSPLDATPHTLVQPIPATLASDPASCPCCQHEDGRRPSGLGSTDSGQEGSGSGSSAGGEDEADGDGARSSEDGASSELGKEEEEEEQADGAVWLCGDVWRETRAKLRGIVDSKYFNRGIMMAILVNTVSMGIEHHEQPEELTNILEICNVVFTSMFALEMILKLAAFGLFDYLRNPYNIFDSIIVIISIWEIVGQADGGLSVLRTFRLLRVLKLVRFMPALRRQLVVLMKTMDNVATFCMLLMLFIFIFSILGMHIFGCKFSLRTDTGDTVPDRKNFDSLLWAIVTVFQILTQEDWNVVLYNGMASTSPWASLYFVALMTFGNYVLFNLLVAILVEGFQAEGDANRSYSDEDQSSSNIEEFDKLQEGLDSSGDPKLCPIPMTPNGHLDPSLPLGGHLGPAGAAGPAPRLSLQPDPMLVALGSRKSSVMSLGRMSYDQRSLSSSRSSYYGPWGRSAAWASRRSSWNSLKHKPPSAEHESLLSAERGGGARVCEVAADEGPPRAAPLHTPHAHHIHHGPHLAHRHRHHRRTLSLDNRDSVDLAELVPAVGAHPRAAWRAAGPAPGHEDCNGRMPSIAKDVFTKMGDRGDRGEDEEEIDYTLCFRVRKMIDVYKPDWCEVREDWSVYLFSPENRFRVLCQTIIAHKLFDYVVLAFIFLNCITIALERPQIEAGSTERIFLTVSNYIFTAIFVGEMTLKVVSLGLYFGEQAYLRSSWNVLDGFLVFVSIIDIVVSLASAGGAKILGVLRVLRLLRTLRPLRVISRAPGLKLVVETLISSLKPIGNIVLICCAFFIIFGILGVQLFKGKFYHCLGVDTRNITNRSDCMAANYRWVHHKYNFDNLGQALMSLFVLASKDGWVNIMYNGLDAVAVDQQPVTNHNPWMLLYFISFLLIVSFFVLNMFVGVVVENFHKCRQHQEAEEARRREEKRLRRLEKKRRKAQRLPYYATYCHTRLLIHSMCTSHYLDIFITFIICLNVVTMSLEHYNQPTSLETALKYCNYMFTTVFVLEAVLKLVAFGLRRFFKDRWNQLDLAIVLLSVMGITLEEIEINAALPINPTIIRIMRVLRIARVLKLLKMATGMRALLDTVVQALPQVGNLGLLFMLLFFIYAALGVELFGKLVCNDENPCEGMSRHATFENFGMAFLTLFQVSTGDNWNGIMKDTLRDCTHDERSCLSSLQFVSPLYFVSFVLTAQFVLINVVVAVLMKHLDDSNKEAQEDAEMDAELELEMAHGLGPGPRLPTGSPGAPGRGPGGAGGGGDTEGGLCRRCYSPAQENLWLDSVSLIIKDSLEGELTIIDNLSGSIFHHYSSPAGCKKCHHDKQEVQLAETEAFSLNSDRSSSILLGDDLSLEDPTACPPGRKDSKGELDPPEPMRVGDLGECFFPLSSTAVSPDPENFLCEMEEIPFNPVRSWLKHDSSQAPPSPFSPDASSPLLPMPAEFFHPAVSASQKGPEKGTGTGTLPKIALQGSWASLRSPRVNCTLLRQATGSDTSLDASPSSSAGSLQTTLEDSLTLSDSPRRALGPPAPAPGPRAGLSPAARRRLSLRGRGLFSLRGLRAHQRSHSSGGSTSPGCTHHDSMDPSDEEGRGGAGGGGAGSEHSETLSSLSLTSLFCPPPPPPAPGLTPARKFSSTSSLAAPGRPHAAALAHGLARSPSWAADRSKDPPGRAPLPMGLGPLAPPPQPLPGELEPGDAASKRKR
Experimental: Changes in intracellular calcium concentrations were measured in Flp-In™ T-REx™ HEK stably expressing either CaV3.1, CaV3.2, or CaV3.3 using Calcium 5 dye (Molecular Devices; Sunnyvale, USA) as previously described (Bladen et al. [2021]). Briefly, cells (120,000/well) were plated into a black, clear-bottomed poly-D-lysine coated, 96-well plate in the presence of 2 μg/mL tetracycline to induce channel expression and incubated overnight at 37°C in ambient CO2. Calcium 5 dye was diluted in HEPES-buffered low potassium Hanks Balanced Salt Solution (HBSS) at 50% of manufacturer’s recommendation. Dye solution containing probenecid (2.5 mM) was added and incubated for 60 min at 37°C in ambient CO2. Compounds were prepared as stock solutions in DMSO and diluted in HBSS with 0.01% bovine serum albumin. Compounds were applied for 5 min, then 10 mM CaCl2 was added. A FlexStation 3 Microplate reader (Molecular Devices; San Jose, USA) was used to take fluorescence readings every 2 s (excitation 485 nm, emission 525 nm). Baseline recordings were taken as the average fluorescence over 20 s preceding CaCl2 addition. Changes in fluorescence were measured as the maximal increase in fluorescence from baseline following CaCl2 addition and normalized to the response of vehicle. CaCl2 addition produced no effect in non-induced cells (Supplemental Fig. 2). Final drug concentrations had ≤ 0.1% DMSO. […]

[2] = tested on: hyperthermia-induced seizures in Scn1a^+/- mice; experiment: Hyperthermia-induced seizures in Scn1a+/- mouse model of Dravet syndrome; format: in vivo
Experimental: as §1

Structure (SMILES)	Plasma concentration ([1]; dose 10 mg/kg i.p.)	Plasma concentration ([1]; dose 30 mg/kg i.p.)	Plasma concentration ([1]; dose 100 mg/kg i.p.)	inhibition of CaV3.3 (change in intracellular calcium relative to vehicle) (CaV3.3)	increase of GTCS temperature threshold ([2]; 100 mg/kg i.p., Scn1a+/- mice)	anticonvulsant effect (GTCS temperature threshold) ([2]; 100 mg/kg i.p., Scn1a+/- mice P14-16)	effect on hyperthermia-induced seizures ([2]; any dose tested (10, 30, 100 mg/kg i.p.), Scn1a+/- mice P14-16)
CCCCCc1cc(O)cc(O)c1C(=O)O [Olivetolic acid]	65000 ± 5000 ng/mL	89000 ± 12000 ng/mL	116000 ± 27000 ng/mL	Neither CBGA methyl ester nor olivetolic acid had any effect; also recorded: ineffective	approximately 0.4 °C	modest but significant anticonvulsant effect; also recorded: significantly increased the temperature threshold for GTCS	
CCCCCc1cc(O)c(C/C=C(\C)CCC=C(C)C)c(O)c1C(=O)OC [CBGA methyl ester]	837 ± 212 ng/mL	4700 ± 600 ng/mL	6200 ± 600 ng/mL	Neither CBGA methyl ester nor olivetolic acid had any effect; also recorded: no effect			no effect; also recorded: ineffective
